In the supplement of paper PMC10627819:

Legend:
[1] = system: S. pneumoniae D39V; test: Bliss interaction score (quartile over a dose matrix) (fitness difference); higher = more antagonism (negative = synergy)
Procedure, shortened: (§1)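 Growth in each well was taken as OD595 at entry into stationary phase. Dividing by the plate's robust no-drug mean and capping at 1 gave fitness, and single-drug fitness was inferred from the combination data. The Bliss score, observed minus product-expected fitness, is summarised by quartiles over technical, biological and donor/recipient replicates.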

[2] = system: B. subtilis 168; test: as above
Procedure, shortened: as §1

[3] = system: S. aureus Newman; test: as above
Procedure, shortened: as §1

[4] = system: S. aureus DSM 20231; test: as above
Procedure, shortened: as §1

[5] = system: B. subtilis 168; test: fitness (endpoint OD595 vs no drug) (fraction); higher = more growth
Procedure, shortened: (§2)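 In 384-well plates at 37 °C, cultures began at OD595 0.01 in 30 µl, with 55 µl used for S. pneumoniae. OD595 readings every 30 min for 14 h were corrected by the first reading. Fitness divides the stationary-phase transition optical density by the robust mean of no-drug control wells. The result is capped at 1.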

[6] = system: S. aureus DSM 20231; test: as above
Procedure, shortened: as §2

[7] = system: S. pneumoniae D39V; test: as above; settings: main component drawn
Procedure, shortened: as §2

[8] = system: S. aureus Newman; test: as above; settings: main component drawn
Procedure, shortened: as §2
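Wherever Bliss interaction score (quartile over a dose matrix) is given: first quartile when negative (synergy) and third quartile when positive (antagonism).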

CC[C@H]1OC(=O)[C@H](C)[C@@H](O[C@H]2C[C@@](C)(OC)[C@@H](O)[C@H](C)O2)[C@H](C)[C@@H](O[C@@H]2O[C@H](C)C[C@H](N(C)C)[C@H]2O)[C@](C)(O)C[C@@H](C)CN(C)[C@H](C)[C@@H](O)[C@]1(C)O [Azithromycin] + CC(=O)NC[C@H]1CN(c2ccc(N3CCOCC3)c(F)c2)C(=O)O1 [Linezolid]
Settings	Bliss interaction score
[1]	-0.0318
[2]	-0.0849
[3]	-0.0582
[4]	-0.0673

fitness
Settings	first compound 0.125 µg/mL	first compound 0.25 µg/mL	first compound 0.5 µg/mL	first compound 1 µg/mL
[5], partner 0.25 µg/mL	–	–	0.106	–
[5], partner 0.5 µg/mL	–	0.0659	0.0597	0.0407
[6], partner 0.125 µg/mL	0.768	0.744	–	–
[6], partner 0.25 µg/mL	0.608	0.557	0.191	–
[6], partner 0.5 µg/mL	–	0.151	0.0625	–

one replicate
Settings	fitness
[5], first compound 0.5 µg/mL, partner 0.0625 µg/mL	0.759
[5], first compound 1 µg/mL, partner 0.0625 µg/mL	0.287
[5], first compound 2 µg/mL, partner 0.0625 µg/mL	0.023
[5], first compound 2 µg/mL, partner 0.125 µg/mL	0
[5], first compound 2 µg/mL, partner 0.25 µg/mL	0.029
[6], first compound 0.125 µg/mL, partner 1 µg/mL	0.0489
[6], first compound 0.25 µg/mL, partner 1 µg/mL	0.0402
[6], first compound 0.5 µg/mL, partner 1 µg/mL	0.0193

CC[C@H]1OC(=O)[C@H](C)[C@@H](O[C@H]2C[C@@](C)(OC)[C@@H](O)[C@H](C)O2)[C@H](C)[C@@H](O[C@@H]2O[C@H](C)C[C@H](N(C)C)[C@H]2O)[C@](C)(O)C[C@@H](C)CN(C)[C@H](C)[C@@H](O)[C@]1(C)O [Azithromycin] + CCC[C@@H]1C[C@@H](C(=O)N[C@@H]([C@H]2O[C@H](SC)[C@H](O)[C@@H](O)[C@H]2O)[C@@H](C)O)N(C)C1 [Lincomycin]
Settings	Bliss interaction score
[1]	0.0603
[2]	0.098
[3]	-0.105
[4]	-0.0854

fitness
Settings	partner 0.1 µg/mL	partner 0.2 µg/mL	partner 0.4 µg/mL	partner 0.8 µg/mL	partner 1.6 µg/mL
[5], first compound 0.25 µg/mL	0.777	0.78	0.833	0.865	0.887
[5], first compound 0.5 µg/mL	0.82	0.817	0.876	0.797	0.77
[5], first compound 1 µg/mL	0.714	0.734	–	–	–
[6], first compound 0.125 µg/mL	0.873	0.754	–	–	–
[6], first compound 0.25 µg/mL	0.89	0.583	–	–	–
[6], first compound 0.5 µg/mL	0.386	0.147	0.106	–	–

[5], first compound 2 µg/mL, one replicate
Settings	fitness
partner 0.1 µg/mL	0.401
partner 0.2 µg/mL	0.24
partner 0.4 µg/mL	0.202

CC[C@H]1OC(=O)[C@H](C)[C@@H](O[C@H]2C[C@@](C)(OC)[C@@H](O)[C@H](C)O2)[C@H](C)[C@@H](O[C@@H]2O[C@H](C)C[C@H](N(C)C)[C@H]2O)[C@](C)(O)C[C@@H](C)CN(C)[C@H](C)[C@@H](O)[C@]1(C)O [Azithromycin] + COc1cc(Cc2cnc(N)nc2N)cc(OC)c1OC [Trimethoprim]
Settings	Bliss interaction score
[1]	-0.0811
[2]	-0.194
[3]	0.175
[4]	0.171

fitness
Settings	partner 0.125 µg/mL	partner 0.25 µg/mL	partner 0.5 µg/mL	partner 1 µg/mL
[5], first compound 0.25 µg/mL	0.669	0.541	0.452	–
[5], first compound 0.5 µg/mL	0.471	–	–	–
[5], first compound 2 µg/mL	–	0.0144	0.0327	–
[6], first compound 0.125 µg/mL	0.789	0.64	0.538	0.0427
[6], first compound 0.25 µg/mL	0.782	0.658	0.562	0.03
[6], first compound 0.5 µg/mL	0.38	–	0.292	0.0131

fitness, [5], one replicate
Settings	partner 0.1 µg/mL	partner 0.125 µg/mL	partner 0.2 µg/mL	partner 0.4 µg/mL	partner 1 µg/mL	partner 2 µg/mL
first compound 0.25 µg/mL	–	–	–	–	0.106	0.0698
first compound 0.5 µg/mL	0.365	–	0.257	0.111	0.051	0.0526
first compound 1 µg/mL	0.144	–	0.0549	0.0194	0.0321	0.0311
first compound 2 µg/mL	0.0143	0.0446	0.0451	0.0182	–	–

CNC(C)C1CCC(N)C(OC2C(N)CC(N)C(OC3OCC(C)(O)C(NC)C3O)C2O)O1 (stereo unspecified) [Gentamicin] + COc1ccc(C[C@H](N)C(=O)N[C@H]2[C@@H](O)[C@H](n3cnc4c(N(C)C)ncnc43)O[C@@H]2CO)cc1 [Puromycin]
main component drawn
Settings	Bliss interaction score
[1]	-0.289
[2]	-0.204
[3]	0.0455
[4]	-0.278

Settings	fitness
[7], first compound 2 µg/mL, partner 1 µg/mL	0.955
[7], first compound 2 µg/mL, partner 2 µg/mL	0.915
[7], first compound 4 µg/mL, partner 1 µg/mL	0.984
[7], first compound 8 µg/mL, partner 1 µg/mL	0.906
[7], first compound 8 µg/mL, partner 4 µg/mL	0.19
[8], first compound 0.5 µg/mL, partner 0.39 µg/mL	0.979
[8], first compound 0.5 µg/mL, partner 0.78 µg/mL	≥ 1
[8], first compound 0.5 µg/mL, partner 1.56 µg/mL	≥ 1
[8], first compound 1 µg/mL, partner 0.39 µg/mL	≥ 1
[8], first compound 1 µg/mL, partner 0.78 µg/mL	≥ 1
[8], first compound 1 µg/mL, partner 1.56 µg/mL	≥ 1
[8], first compound 2 µg/mL, partner 0.39 µg/mL	0.994
[8], first compound 2 µg/mL, partner 0.78 µg/mL	≥ 1
[8], first compound 2 µg/mL, partner 1.56 µg/mL	≥ 1

fitness
Settings	partner 0.39 µg/mL	partner 0.78 µg/mL	partner 1.56 µg/mL
[5], first compound 0.0625 µg/mL, main component drawn	0.889	–	–
[5], first compound 0.25 µg/mL, main component drawn	0.0531	0.0448	0.0402
[8], first compound 0.375 µg/mL, one replicate	≥ 1	≥ 1	≥ 1
[8], first compound 0.75 µg/mL, one replicate	≥ 1	≥ 1	≥ 1
[8], first compound 1.5 µg/mL, one replicate	0.973	≥ 1	≥ 1

CNC(C)C1CCC(N)C(OC2C(N)CC(N)C(OC3OCC(C)(O)C(NC)C3O)C2O)O1 (stereo unspecified) [Gentamicin] + C[n+]1ccc(-c2cc[n+](C)cc2)cc1 [Paraquat]
main component drawn
Settings	Bliss interaction score
[1]	0.0553
[2]	-0.0978
[3]	0.0489
[4]	0.109

fitness
Settings	first compound 0.5 µg/mL	first compound 1 µg/mL	first compound 2 µg/mL	first compound 4 µg/mL	first compound 8 µg/mL
[7], partner 1.5 µg/mL	–	–	0.982	≥ 1	0.993
[7], partner 3 µg/mL	–	–	0.99	0.971	0.902
[7], partner 6 µg/mL	–	–	0.931	0.932	0.935
[8], partner 1.25 µg/mL	0.957	0.981	≥ 1	–	–
[8], partner 2.5 µg/mL	0.953	≥ 1	≥ 1	–	–
[8], partner 5 µg/mL	0.928	0.992	0.963	–	–

fitness
Settings	partner 1.25 µg/mL	partner 2.5 µg/mL	partner 5 µg/mL
[5], first compound 0.0625 µg/mL, main component drawn	0.865	0.864	–
[5], first compound 0.25 µg/mL, main component drawn	0.203	0.0485	0.0561
[8], first compound 0.375 µg/mL, one replicate	0.919	0.951	0.952
[8], first compound 0.75 µg/mL, one replicate	0.918	0.937	0.9
[8], first compound 1.5 µg/mL, one replicate	0.949	0.98	0.976

CNC(C)C1CCC(N)C(OC2C(N)CC(N)C(OC3OCC(C)(O)C(NC)C3O)C2O)O1 (stereo unspecified) [Gentamicin] + Cc1cc(NS(=O)(=O)c2ccc(N)cc2)no1 [Sulfamethoxazol]
main component drawn
Settings	Bliss interaction score
[1]	0.0873
[2]	0.128
[3]	-0.0274
[4]	0.0736

fitness
Settings	first compound 0.5 µg/mL	first compound 1 µg/mL	first compound 2 µg/mL	first compound 4 µg/mL	first compound 8 µg/mL
[7], partner 1 µg/mL	–	–	0.942	0.973	0.978
[7], partner 2 µg/mL	–	–	0.942	0.977	0.968
[7], partner 4 µg/mL	–	–	0.962	0.967	0.951
[8], partner 1 µg/mL	0.948	≥ 1	0.98	–	–
[8], partner 2 µg/mL	0.936	≥ 1	0.986	–	–
[8], partner 4 µg/mL	0.981	0.999	1	–	–

[5], partner 0.5 µg/mL, one replicate, main component drawn
Settings	fitness
first compound 0.0625 µg/mL	0.848
first compound 0.125 µg/mL	0.975
first compound 0.25 µg/mL	0.864

fitness
Settings	partner 1 µg/mL	partner 2 µg/mL	partner 4 µg/mL	partner 8 µg/mL
[5], first compound 0.0625 µg/mL, main component drawn	0.904	0.902	0.906	–
[5], first compound 0.25 µg/mL, main component drawn	–	–	0.0278	–
[8], first compound 0.375 µg/mL, one replicate	≥ 1	0.979	≥ 1	–
[8], first compound 0.75 µg/mL, one replicate	0.974	0.926	≥ 1	–
[8], first compound 1 µg/mL, one replicate	–	–	–	≥ 1
[8], first compound 1.5 µg/mL, one replicate	≥ 1	0.975	0.981	–
[8], first compound 2 µg/mL, one replicate	–	–	–	0.975
[8], first compound 4 µg/mL, one replicate	–	0.899	0.691	0.852
